Results taken from patent publication US20250346613A1, “BORIC ACID PROTEASOME INHIBITOR AND USE THEREOF” (ARTIVILA BIOPHARMA, priority 2022, published 2025).

System: MM.1S cell strain
Assay: Inhibitory activity of cell strain (CellTiter-Glo)
Format: cell-based
Settings: Homo sapiens, MM1.S, 72 h incubation
Description: The cells used in this experiment were MM.1S cell strain and the detection reagent was CellTiter-Glo (Promega). […] The experimental process was described below. MM.1S cells in the logarithmic growth phase and in a good status were digested into individual cells by trypsin, centrifuged to remove the supernatant, and counted. Cells were diluted and 100 μL of cell suspension per well was added to a 96-well enzyme-coated plate at 1×10^5 cells per well. The wells containing only RPMI1640 complete medium were set as blank control. The 96-well plate was transferred to a 37° C. incubator containing 5% CO2 for 24 h of incubation.
The compound was accurately weighed and dissolved in DMSO to a concentration of 10^−2 M. 10 μL of compound was pipetted to 190 μL of DMSO to given a 5×10^−4 M compound. 6 μL of the compound (5×10^−5 M) was pipetted to a new 96-well microplate containing 194 μL of RPMI1640 complete medium and diluted in a 3-fold gradient dilution. 50 μL of the diluted compound was transferred to the 96-well microplate containing the cells such that the final compound concentrations were 5×10^−7 M, 1.67×10^−7 M, 5.55×10^−8 M, 1.85×10^−8 M, 6.17×10^−9 M, 2.06×10^−9 M, 6.86×10^−10 M, 2.29×10^−10 M, and 0 M. For the 0 M, no compound was added, and the same concentration of DMSO was added. The marketed drug bortezomib was used as a positive control. The 96-well microplate added with compounds was placed in the 37° C. incubator for 72 h of incubation.
At the predetermined detection time, the 96-well microplate to be detected was placed at room temperature, added with 40 μL of detection reagent (CellTiter-Glo) per well, and covered with a dark lid or piece of aluminium foil. The contents were mixed on an orbit oscillator for 10 min for complete cell lysis, with a vibration speed of 150 rpm. Luminescence values were detected on a multifunctional microplate reader (BioTek Synergy H1 Hybrid Multi-Mode Reade).
The data were exported and the percentage inhibition was calculated according to the following formula: Inhibition rate=(maximum signal value-compound signal value)/(maximum signal value−blank signal value)×100%, • wherein maximum signal was obtained from alone DMSO-treated cells, and blank signal was obtained from wells containing only culture medium.

| Compound | IC50 |
| --- | --- |
| O=C(/C=C/C(=O)N[C@@H](Cc1ccccc1)B(O)O)NCc1cc(Cl)ccc1Cl [Example 12] | 200 to 500 nM |
| [2H]/C(C(=O)NCc1ccccc1)=C(/[2H])C(=O)N[C@@H](Cc1ccccc1)B(O)O [Example 17, (R,E)-(1-(4-(benzylamino)-4-oxobut-2-enamido-2,3-D2)-2-phenylethyl)boric acid] | 50 to 200 nM |
| COc1cccc(CCNC(=O)C(C)C(=O)N[C@@H](Cc2ccccc2)B(O)O)c1 (stereo partly drawn) [Example 61, ((1R)-1-(3-((3-methoxyphenylethyl)amino)-2-methyl-3-oxopropionamido)-2-phenylethyl)boric acid] | 50 to 200 nM |
| COc1ccc(NC(=O)C(C)C(=O)N[C@@H](Cc2ccc(C)cc2)B(O)O)cc1 (stereo partly drawn) [Example 70, ((1R)-1-(3-((4-methoxyphenyl)amino)-2-methyl-3-oxopropionamido)-2-(p-tolyl)ethyl)boric acid] | 50 to 200 nM |
| COc1cccc(CNC(=O)C(Cc2ccccc2)C(=O)N[C@@H](Cc2coc3ccccc23)B(O)O)c1 (stereo partly drawn) [Example 71, ((1R)-2-(benzofuran-3-yl)-1-(2-benzyl-3-((3-methoxybenzyl)amino)-3-oxopropionamido)ethyl)boric acid] | ≤ 50 nM |
| CC(C(=O)NCc1cccc(OC(F)(F)F)c1)C(=O)N[C@@H](Cc1ccc(-c2ccccc2)cc1)B(O)O (stereo partly drawn) [Example 74, ((1R)-2-([1,1′-biphenyl]-4-yl)-1-(2-methyl-3-oxo-3-((3-(trifluoromethoxy)benzyl)amino)propanamido)ethyl)boronic acid] | ≤ 50 nM |
| COc1cccc(CNC(=O)C(C(=O)N[C@@H](Cc2ccc(-c3ccccc3)cc2)B(O)O)C(C)C)c1 (stereo partly drawn) [Example 76, ((1R)-2-([1,1′-biphenyl]-4-yl)-1-(2-((3-methoxybenzyl)carbamoyl)-3-methylbutanamido)ethyl)boric acid] | ≤ 50 nM |
| CC(C(=O)NCc1cccc(C(F)(F)F)c1)C(=O)N[C@@H](Cc1ccc(-c2ccccc2)cc1)B(O)O (stereo partly drawn) [Example 78, ((1R)-2-([1,1′-biphenyl]-4-yl)-1-(2-methyl-3-oxo-3-((3-(trifluoromethyl)benzyl)amino)propionamido)ethyl)boric acid] | ≤ 50 nM |
| O=C(NCc1cccc(OC(F)(F)F)c1)C(F)C(=O)N[C@@H](Cc1ccccc1)B(O)O (stereo partly drawn) [Example 95, ((1R)-1-(2-fluoro-3-oxo-3-((3-(trifluoromethoxy)benzyl)amino)propionamido)-2-phenylethyl)boric acid] | ≤ 50 nM |
| Cc1ccc(C[C@H](NC(=O)C(F)C(=O)NCc2cccc(OC(F)(F)F)c2)B(O)O)cc1 (stereo partly drawn) [Example 96, ((1R)-1-(2-fluoro-3-oxo-3-((3-(trifluoromethoxy)benzyl)amino)propionamido)-2-(p-tolyl)ethyl)boric acid] | ≤ 50 nM |

Next, values leading:

| IC50 | Compound |
| --- | --- |
| 200 to 500 nM | Cc1ccc(CNC(=O)/C=C/C(=O)N[C@@H](CC(C)C)B(O)O)cc1 [Example 11] |
| 50 to 200 nM | COc1cccc(NC(=O)C(C)C(=O)N[C@@H](Cc2ccccc2)B(O)O)c1 (stereo partly drawn) [Example 67, ((1R)-1-(3-((3-methoxyphenyl)amino)-2-methyl-3-oxopropionamido)-2-phenylethyl)boric acid] |
| ≤ 50 nM | COc1cccc(CNC(=O)C(Cc2ccccc2)C(=O)N[C@@H](Cc2ccc(-c3ccccc3)cc2)B(O)O)c1 (stereo partly drawn) [Example 72, ((1R)-2-([1,1′-biphenyl]-4-yl)-1-(2-benzyl-3-((3-methoxybenzyl)amino)-3-oxopropionamido)ethyl)boric acid] |
| ≤ 50 nM | Cc1ccc(C[C@H](NC(=O)C(C)C(=O)NCc2cccc(OC(F)(F)F)c2)B(O)O)cc1 (stereo partly drawn) [Example 86, ((1R)-1-(2-methyl-3-oxo-3-((3-(trifluoromethoxy)benzyl)amino)propionamido)-2-(p-tolyl)ethyl)boric acid] |
| ≤ 50 nM | O=C(NCc1cccc(OC(F)(F)F)c1)C(F)C(=O)N[C@@H](Cc1coc2ccccc12)B(O)O (stereo partly drawn) [Example 97, ((1R)-2-(Benzofuran-3-yl)-1-(2-fluoro-3-oxo-3-((3-(trifluoromethoxy)benzyl)amino)propionamido)ethyl)boric acid] |
